In patent publication US20260250318A1, “COMPOSITIONS AND METHODS FOR CROSSING THE BLOOD BRAIN BARRIER” (VOYAGER THERAPEUTICS, INC., priority 2022, published 2026):

What was measured:
[1] = test system: brains, heart, liver, muscle, and DRG of the NHPs; assay: Maturation of TTM-001 and TTM-002 capsids, NGS enrichment in NHP tissues; format: in vivo; conditions: relative to AAV9 control
Summary of the method: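 Variants carry mutations within and flanking the loop IV peptide insert: positions 450–466 were triplet-randomized, while positions 449–466 received low-frequency point mutations. The combined pool went into two NHPs, and each peptide was scored by NGS enrichment ratio against AAV9.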

brain = assay: Matured TTM-001 and TTM-002 variants, NGS enrichment in mouse brain; format: in vivo, mice; conditions: relative to AAV9 control
[2] = NGS fold-enrichment of matured AAV capsid variants, NHP brain, RNA
[3] = NGS fold-enrichment of RNA, NHP brain
[4] = NGS fold-enrichment, NHP liver DNA
[5] = NGS fold-enrichment, NHP liver RNA
[6] = NGS fold-enrichment, NHP muscle
[7] = NGS fold-enrichment, mouse brain
[8] = NGS fold-enrichment, DRG of NHPs
[9] = NGS fold-enrichment, RNA, brain of NHPs
[10] = NGS fold-enrichment, heart of NHPs
[11] = NGS fold-enrichment, liver DNA of NHPs
[12] = NGS fold-enrichment, liver RNA of NHPs
[13] = NGS fold-enrichment, muscle of NHPs
[14] = NGS fold-enrichment, brain of mice

| Sequence | Fold Enrichment relative to AAV9, Brain (NHP) [1, 2] [fold] | Fold Enrichment relative to AAV9, DRG (NHP) ([1]; NHP DRG) [fold] | Fold Enrichment relative to AAV9, Heart (NHP) ([1]; NHP heart) [fold] | Fold Enrichment relative to AAV9, Liver DNA (NHP) ([1]; NHP liver, DNA) [fold] | Fold Enrichment relative to AAV9, Liver RNA (NHP) ([1]; NHP liver, RNA) [fold] | Fold Enrichment relative to AAV9, Muscle (NHP) ([1]; NHP muscle) [fold] | Fold Enrichment relative to AAV9, Brain (Mouse) (brain; mouse brain) [fold] | Fold Enrichment relative to AAV9, Brain (NHP) [1, 3] [fold] | Fold Enrichment relative to AAV9, DRG (NHP) ([1]; NGS fold-enrichment, NHP DRG) [fold] | Fold Enrichment relative to AAV9, Heart (NHP) ([1]; NGS fold-enrichment, NHP heart) [fold] | Fold Enrichment relative to AAV9, Liver DNA (NHP) [1, 4] [fold] | Fold Enrichment relative to AAV9, Liver RNA (NHP) [1, 5] [fold] | Fold Enrichment relative to AAV9, Muscle (NHP) [1, 6] [fold] | Fold Enrichment relative to AAV9, Brain (Mouse) (brain; [7]) [fold] | further results |
| --- | --- | --- | --- | --- | --- | --- | --- | --- | --- | --- | --- | --- | --- | --- | --- |
| KTINGSGSPHSKAQKIST | 50.285 | 0.000 | 0.000 | 0.302 | 0.108 | 0.088 | 51.115 | – | – | – | – | – | – | – | – |
| KAIIGHESPHKSGQNQQT | – | – | – | – | – | – | – | 88.563 | 0.000 | 0.150 | 0.145 | 0.062 | 0.000 | 8.530 | – |
| KVINGSGSPHSKGQNQQT (peptide inserted in AAV capsid) | – | – | – | – | – | – | – | – | – | – | – | – | – | – | Fold Enrichment relative to AAV9, DRG (NHP) [1, 8]: 0.000 fold; Fold Enrichment relative to AAV9, Brain (NHP) [1, 9]: 60.001 fold; Fold Enrichment relative to AAV9, Heart (NHP) [1, 10]: 0.000 fold; Fold Enrichment relative to AAV9, Liver DNA (NHP) [1, 11]: 0.157 fold; Fold Enrichment relative to AAV9, Liver RNA (NHP) [1, 12]: 0.264 fold; Fold Enrichment relative to AAV9, Muscle (NHP) [1, 13]: 0.031 fold; Fold Enrichment relative to AAV9, Brain (Mouse) (brain; [14]): 68.532 fold |
| KTINGSGSPHSKAQYRAT | 51.008 | 0.000 | 0.158 | 0.120 | 0.690 | 0.000 | 50.650 | – | – | – | – | – | – | – | – |
| KTINGSGSPHSKAQFMCT | 55.916 | 0.000 | 0.000 | 0.448 | 0.078 | 0.000 | 81.959 | – | – | – | – | – | – | – | – |
| KAVNGHDSPHKSVQNQQT | – | – | – | – | – | – | – | 81.051 | 0.448 | 0.051 | 0.091 | 0.665 | 0.000 | 11.288 | – |
| KTINGSGSPHSKNRDQQT | 51.830 | 0.000 | 0.008 | 0.138 | 0.480 | 0.000 | 100.300 | – | – | – | – | – | – | – | – |
| KTINGSGSPHSKAHVRQT | – | – | – | – | – | – | – | 119.798 | 0.000 | 0.000 | 1.039 | 0.694 | 0.262 | 165.590 | Fold Enrichment relative to AAV9, DRG (NHP) [1, 8]: 0.000 fold; Fold Enrichment relative to AAV9, Brain (NHP) [1, 9]: 119.798 fold; Fold Enrichment relative to AAV9, Heart (NHP) [1, 10]: 0.000 fold; Fold Enrichment relative to AAV9, Liver DNA (NHP) [1, 11]: 1.039 fold; Fold Enrichment relative to AAV9, Liver RNA (NHP) [1, 12]: 0.694 fold; Fold Enrichment relative to AAV9, Muscle (NHP) [1, 13]: 0.262 fold; Fold Enrichment relative to AAV9, Brain (Mouse) (brain; [14]): 165.590 fold |
| KTIRENGSPHSKAQNQQT | 55.605 | 0.000 | 0.000 | 0.257 | 0.131 | 0.016 | 95.931 | – | – | – | – | – | – | – | – |
